Test results from patent publication US6331555A, “Treatment of platelet derived growth factor related disorders such as cancers” (priority 1999, dated 2001).
Where two headings read alike, the source gives them in different places.

Assays:
C6 glioma cells = assay: C6 glioma SC xenograft in mice; assay type: in vivo; details: for inhibition in vivo at 15 mg/kg: Rattus norvegicus, C6 glioma, sc, read-out: C6 in vivo EFFICACY
Outline: (§1)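 C6 (3×10^6) or SKOV-3 (1×10^7) cells in PBS were implanted into the hind flank of female Balb/c nu/nu mice on Day 0; U87MG and U118MG went into athymic mice. Tumors were caliper-measured over 3–6 weeks, with volume as length×width×height. P values came from Student's t-test.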

U1242 cells [1] = assay: Cytotoxicity in U1242 cells, MTT; assay type: cell-based, human; details: for CC50: Homo sapiens, read-out: CYTOXICITY MTT U1242 LD50, heading: CYTOXICITY MTT U1242 LD50; for LD50 compared to A10: MTT or LDH
Experimental: (§2) The cytotoxicity of each drug was also determined. The cells were plated as described above. Following incubation with drug, cell survival was measured by an MTT assay as described by Mossman J. Immunol. Methods 65:55-63 (1983), or by measuring the amount of LDH released (Korzeniewski and Callewaert, J. Immunol. Methods 64:313 (1983); Decker and Lohmann-Matthes, J. Immunol. Methods 115:61 (1988) .

U1242 cells [2] = assay: Cytotoxicity in U1242 cells, LDH; assay type: cell-based; details: Homo sapiens, read-out: CYTOXICITY LDH U1242 LD50
Experimental: as §2

PDGF-R (U1242) = molecular target: T1, PDGF-R (U1242) (Homo sapiens, UniProt P09619); assay: U1242 kinase (PDGF-R activity); assay type: cell-based
T1 construct: U1242 (PDGF-β receptor); host or cells: U1242 MG glioma cells
T1 sequence (P09619 33-1106): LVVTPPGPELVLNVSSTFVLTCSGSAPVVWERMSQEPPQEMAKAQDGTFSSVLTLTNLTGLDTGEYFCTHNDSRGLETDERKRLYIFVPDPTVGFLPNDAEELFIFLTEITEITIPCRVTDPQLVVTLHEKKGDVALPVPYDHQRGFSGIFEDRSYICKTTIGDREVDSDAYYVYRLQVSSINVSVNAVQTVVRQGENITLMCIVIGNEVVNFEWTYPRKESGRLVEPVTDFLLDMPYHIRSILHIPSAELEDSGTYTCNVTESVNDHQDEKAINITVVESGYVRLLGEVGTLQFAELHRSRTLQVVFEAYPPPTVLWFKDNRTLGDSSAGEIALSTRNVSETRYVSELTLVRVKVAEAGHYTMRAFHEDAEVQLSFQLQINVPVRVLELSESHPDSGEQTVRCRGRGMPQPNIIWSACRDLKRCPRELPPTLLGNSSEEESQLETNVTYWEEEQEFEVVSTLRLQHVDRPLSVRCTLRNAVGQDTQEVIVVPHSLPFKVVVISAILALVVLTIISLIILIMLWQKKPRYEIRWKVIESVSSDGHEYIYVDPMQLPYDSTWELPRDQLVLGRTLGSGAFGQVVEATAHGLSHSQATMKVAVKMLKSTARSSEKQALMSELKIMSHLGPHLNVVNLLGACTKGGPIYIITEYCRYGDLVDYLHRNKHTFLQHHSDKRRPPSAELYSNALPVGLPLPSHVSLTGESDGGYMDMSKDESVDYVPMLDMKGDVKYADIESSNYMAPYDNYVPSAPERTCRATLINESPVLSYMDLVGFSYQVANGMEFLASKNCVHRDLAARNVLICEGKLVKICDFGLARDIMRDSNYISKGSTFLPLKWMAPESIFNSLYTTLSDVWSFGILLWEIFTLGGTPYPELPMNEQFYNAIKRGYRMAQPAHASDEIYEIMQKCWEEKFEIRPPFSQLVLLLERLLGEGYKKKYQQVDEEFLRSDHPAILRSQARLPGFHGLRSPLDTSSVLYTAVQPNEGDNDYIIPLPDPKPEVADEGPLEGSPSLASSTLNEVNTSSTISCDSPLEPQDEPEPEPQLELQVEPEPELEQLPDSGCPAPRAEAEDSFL
Outline: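 For ELISA, cells were held overnight in 0.5% serum, then treated with compound for 2 h at 37 °C in serum-free medium. Lysate phosphotyrosine was detected with polyclonal anti-phosphotyrosine antibody. In western blots, cells were stimulated with ligand for 7 min at room temperature and probed with anti-phosphotyrosine (1:3000).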

[3] = C6 glioma SC xenograft in mice; assay type: in vivo; details: rat, in vivo, ip; for mortality at 336 h: 15 mg/kg
Outline: as §1

[4] = W = done in Western assay, read-out: U1242 KINASE IC50 (W)
[5] = heading: CYTOXICITY LDH U1242 LD50

SMILES: Cc1oncc1C(=O)Nc1ccc(C(F)(F)F)cc1 [Compound A10, 5-methylisoxazole-4 carboxylic acid-(4-trifluromethyl)-anilide]
- inhibition in tumor growth (C6 glioma cells; 15 mg/kg/day (DMSO), after 20 days): greater than 90%
- % Inhibition (C6 glioma cells; 15 mg/kg/day, DMSO): 90%
- % Inhibition (C6 glioma cells; 15 mg/kg/day, PBTE): 92%
- % Inhibition (C6 glioma cells; 20 mg/kg (DMSO), 2 days): 77%
- % Inhibition (C6 glioma cells; 20 mg/kg (DMSO), 4 days): 60%
- % Inhibition (C6 glioma cells; 20 mg/kg (PBTE:D5W), daily): > 95%
- % Inhibition (C6 glioma cells; 20 mg/kg, PBTE:D5W): > 95%
- % Inhibition (C6 glioma cells; 20 mg/kg/day, DMSO): 95%
- % Inhibition (C6 glioma cells; 20 mg/kg/day, PBTE): > 95%
- % Inhibition (C6 glioma cells; 30 mg/kg (DMSO), 2 days): 91%
- % Inhibition (C6 glioma cells; 30 mg/kg (DMSO), 3 days): 87%
- % Inhibition (C6 glioma cells; 40 mg/kg (PBTE), 2 days): > 95%
- % Inhibition (C6 glioma cells; 40 mg/kg/2 days, PBTE): > 95%
- % Inhibition (C6 glioma cells; 60 mg/kg (PBTE), weekly): 51%
- % Inhibition (C6 glioma cells; 100 mg/kg (PBTE), weekly): 63%
- efficacy of formulations (C6 glioma cells; PBTE, PBTE:D5W and DMSO): equivalent in vivo inhibition of tumor growth
- % Inhibition (C6 glioma cells; nu/nu, 20 mg/kg/day, day 21): > 95%
- % Inhibition (C6 glioma cells; nu/nu†, 20 mg/kg/day, day 18, delayed start): 84%
- In Vivo inhibition (C6 glioma cells; xenografted athymic mice): 95%

SMILES: N#CC(=Cc1c[nH]c2ccccc12)C(N)=S [Compound D11]
- CC50 (U1242 cells [1]): 90 µM

SMILES: N#CC(=Cc1c[nH]c2ccccc12)c1[nH]nc(N)c1C#N [Compound D14]
- CC50 (U1242 cells [2]): > 100 µM

SMILES: CN(C)CCCn1cc(C=C(C#N)c2[nH]nc(N)c2C#N)c2ccccc21 [Compound D15]
- CC50 (U1242 cells [1]): 80 µM

SMILES: O=c1c2ccccc2nc(C=Cc2ccc(O)c(O)c2)n1CCO [Compound F10]
- IC50 (PDGF-R (U1242); [4]): 45 µM

SMILES: Cc1cc2ncc(-c3ccccc3)nc2cc1C [Compound G13]
- CC50 (U1242 cells [1]): 100 µM
- LD50 compared to A10 (U1242 cells [1]): LD50 less than A10
- CC50 (U1242 cells [2]; [5]): > 100 µM
- mortality at 336 h [3]: 0%
- inhibition in vivo at 15 mg/kg (C6 glioma cells): 12%

SMILES: COc1cc2ncc(-c3ccccc3)nc2cc1OC [Compound G14]
- LD50 compared to A10 (U1242 cells [1]): LD50 less than A10
- CC50 (U1242 cells [2]; [5]): > 100 µM
- mortality at 336 h [3]: 0%
- inhibition in vivo at 15 mg/kg (C6 glioma cells; at 15 mg/kg): 36%
- IC50 (PDGF-R (U1242); [4]): 0.8 µM

SMILES: Cc1cc2nc(-c3ccccc3)c(=O)[nH]c2cc1C [Compound G18]
- CC50 (U1242 cells [2]): > 100 µM

SMILES: c1ccc(-c2cnc3cc4ccccc4cc3n2)cc1 [Compound G22]
- CC50 (U1242 cells [2]): > 100 µM
- mortality ([3]; 20 mg/kg): 0%
- C6 in vivo EFFICACY (C6 glioma cells; at 20 mg/kg): no effect
- IC50 (PDGF-R (U1242); [4]): 0.9 µM
- IC50 (PDGF-R (U1242); read-out: U1242 KINASE IC50): 14 µM
